Data from patent US10800752B2, “Substituted naphtho[2,3-b]furans as water-soluble prodrugs for preventing and/or treating cancer” (BOSTON BIOMEDICAL, INC., priority 2015, dated 2020).
Where two headings read alike, the source gives them in different places.

Assay type: in vivo, CD1 (ICR) mice
Details: for Plasma Compound Concentration: Activated form 1 in plasma, 232.5 mg/kg (p.o.)
From the text: It was then centrifuged to obtain plasma.

COC(=O)[C@@H](N)CCNC(=O)Oc1c2ccccc2c(OC(=O)NCC[C@H](N)C(=O)OC)c2oc(C(C)=O)cc12.Cl.Cl [Example 11]
Plasma Compound Concentration (0.25 hr, animal 1): 18.86 µM | Plasma Compound Concentration (0.25 hr, animal 2): 19.65 µM | Plasma Compound Concentration (0.25 hr, animal 3): 25.31 µM | Plasma Compound Concentration (0.25 hr, mean): 21.27 µM | Plasma Compound Concentration (0.5 hr, animal 1): 17.48 µM | Plasma Compound Concentration (0.5 hr, animal 2): 11.45 µM | Plasma Compound Concentration (0.5 hr, animal 3): 17.11 µM | Plasma Compound Concentration (0.5 hr, mean): 15.35 µM | Plasma Compound Concentration (1.0 hr, animal 1): 10.87 µM | Plasma Compound Concentration (1.0 hr, animal 2): 18.98 µM | Plasma Compound Concentration (1.0 hr, animal 3): 15.93 µM | Plasma Compound Concentration (1.0 hr, mean): 15.26 µM | Plasma Compound Concentration (2.0 hr, animal 1): 13.53 µM | Plasma Compound Concentration (2.0 hr, animal 2): 6.62 µM | Plasma Compound Concentration (2.0 hr, animal 3): 13.57 µM | Plasma Compound Concentration (2.0 hr, mean): 11.24 µM | Plasma Compound Concentration (4.0 hr, animal 1): 6.12 µM | Plasma Compound Concentration (4.0 hr, animal 2): 3.73 µM | Plasma Compound Concentration (4.0 hr, animal 3): 11.49 µM | Plasma Compound Concentration (4.0 hr, mean): 7.11 µM | Plasma Compound Concentration (6.0 hr, animal 1): 2.37 µM | Plasma Compound Concentration (6.0 hr, animal 2): 0.60 µM | Plasma Compound Concentration (6.0 hr, animal 3): 0.75 µM | Plasma Compound Concentration (6.0 hr, mean): 1.24 µM | Plasma Compound Concentration (24.0 hr, animal 3): 0.04 µM | Plasma Compound Concentration (24.0 hr, mean): 0.01 µM | concentration of 2-acetylnaphtho[2,3-b]furan-4,9-dione (Activated form 1) observed (in words) (orally administered to mice): high concentration
